Laboratory results published in patent publication US11186581B2, “2-(1,3-dimethyl-2,6-dioxo-1,2,3,6-tetrahydro-7H-purin-7-yl)-N-(6-(2-hydroxyphenyl)pyridazin-3-yl)acetamide as a Wnt pathway modulator” (Agency for Science, Technology and Research, priority 2017, dated 2021).

Test system: HEK293-STF3A cells
Assay: STF3A assay (Wnt reporter luciferase)
Type: cell-based
Conditions: Homo sapiens, 24 h, 1 day of treatment, read-out: IC50 activities on STF3A cells
Method: HEK293-STF cell line was modified from Human embryonic kidney cell line HEK293 transfected with the STF reporter. HEK293-STF3 A cell line was further modified from HEK293-STF cell line to express Wnt3A. This cell line was used to identify compounds that regulate either early or late signalling components of the Wnt pathway. L-Wnt3 A (ATCC, #CRL-2647) cell line was used for providing Wnt3 A conditioned media. The three cell lines were grown in DMEM (Dulbecco's Modified Eagle Medium) with 10% FBS (fetal bovine serum) incubated in 37° C. with 5% CO2.
2×10^4 HEK293-STF3A cells in 75 μl culture media were seeded in each well of white 96 well plates (Greiner #655098) and incubated overnight at 37° C. 25 μl serially diluted compound was added to the cells to give final concentration of 50 μM to 1.5 nM. After 1 day of treatment, 100 μl of Steady-Glo® Luciferase Assay reagent (#E2520, Promega) was added to each well and incubated for 10 minutes at room temperature. Luminescence was measured using Tecan Safire2® plate reader.

Question: `COc1ccccc1-c1ccc(NC(=O)Cn2cnc3c2c(=O)n(C)c(=O)n3C)nn1` [Compound 2, reference compound] was tested. Which IC50 did it give?
Answer: The IC50 was > 10 µM.
